Two compounds from US8076359B2, “Renin inhibitors” (Merck Canada Inc., priority 2006, dated 2011) can be followed below.

The target of test [1] is T1, renin in human plasma (Homo sapiens, UniProt P00797).
T1 construct: host or cells: recombinant enzyme added to human plasma from 10 normal donors
T1 sequence (P00797 67-406): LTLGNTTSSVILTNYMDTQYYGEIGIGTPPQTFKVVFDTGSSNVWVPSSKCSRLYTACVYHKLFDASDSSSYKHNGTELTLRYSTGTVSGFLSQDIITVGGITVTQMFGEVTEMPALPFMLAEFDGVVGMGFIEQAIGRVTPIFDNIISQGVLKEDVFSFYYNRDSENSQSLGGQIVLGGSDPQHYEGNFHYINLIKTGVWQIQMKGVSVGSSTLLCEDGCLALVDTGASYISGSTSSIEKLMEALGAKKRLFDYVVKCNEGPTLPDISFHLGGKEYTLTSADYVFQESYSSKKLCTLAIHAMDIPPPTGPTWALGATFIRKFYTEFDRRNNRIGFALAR
In words: Inhibition of renin in human plasma (enzymatic in vitro assay, Ang I detected by EIA). Conditions: human plasma from 10 normal donors; human recombinant renin 3 pM; 37° C. for 2 h. In kind it is biochemical. The procedure: Inhibition of Renin in Human Plasma
The enzymatic in vitro assay was performed in 384-well polypropylene plates (Nunc). The assay buffer consisted of PBS (Gibco BRL) including 1 mM EDTA and 0.1% BSA. The reaction mixture was composed of 80 μL per well of human plasma, enzyme, Ang I-antibodies mix and 5 μL of renin inhibitors in DMSO. The human plasma mix was premixed at 4° C. and consists of • human plasma from 10 normal donors • human recombinant renin (3 pM) • Ang I-antibodies. The mixtures were then incubated at 37° C. for 2 h.
To determine the enzymatic activity and its inhibition, the accumulated Ang I was detected by an enzyme immunoassay (EIA) in 384-well plates (Nunc). 10 μL of the reaction mixture or standards were transferred to immuno plates which were previously coated with a covalent complex of Ang I and bovine serum albumin (Ang I-BSA). 70 μL assay buffer were added and the plates were incubated at 4° C. overnight. The plates were washed 3 times with PBS including 0.01% Tween 20, and then incubated for 2 h at RT with an anti rabbit-peroxidase coupled antibody (WA 934, Amersham).

The target of test [2] is T2, human recombinant renin (Homo sapiens, UniProt P00797).
T2 sequence (P00797 67-406): T1 sequence (P00797 67-406)
Kind of test: Inhibition of human recombinant renin (enzymatic in vitro assay in buffer, Ang I detected by EIA). Conditions: assay buffer PBS, 1 mM EDTA, 0.1% BSA; human recombinant renin 40 pM; 37° C. for 3 h. Format: biochemical. The procedure: Inhibition of Human Recombinant Renin
The enzymatic in vitro assay was performed in 384-well polypropylene plates (Nunc). The assay buffer consisted of PBS (Gibco BRL) including 1 mM EDTA and 0.1% BSA. The reaction mixture were composed of 47.5 μL per well of an enzyme mix and 2.5 μL of renin inhibitors in DMSO. The enzyme mix was premixed at 4° C. and consists of the following components: • human recombinant renin (40 pM) • synthetic human angiotensin(1-14) (0.5 μM) • hydroxyquinoline sulfate (1 mM) The mixtures were then incubated at 37° C. for 3 h. The enzyme reaction was stopped by placing the reaction plate on wet ice.
To determine the enzymatic activity and its inhibition, the accumulated Ang I was detected by an enzyme immunoassay (EIA) in 384-well plates (Nunc). 5 μL of the reaction mixture or standards were transferred to immuno plates which were previously coated with a covalent complex of Ang I and bovine serum albumin (Ang I-BSA). 75 μL of Ang I-antibodies in assay buffer above including 0.01% Tween 20 were added and the plates were incubated at 4° C. overnight.
An alternative protocol could be used by stopping the enzymatic reaction with 0.02N final concentration of HCl. 5 μL of the reaction mixture or standards were transferred to immuno plates and 75 μL of Ang I-antibodies in assay buffer above including 0.01% Tween 20 were added and the plates were incubate at RT for 4 h. […]

With `COCCCc1cc(CN(C(=O)[C@H]2CNCC[C@@H]2c2ccc(OCCOc3c(Cl)cc(C)cc3Cl)nc2)C2CC2)cc(OCCOC)c1` [Example 2, (3R,4S)-N-Cyclopropyl-4-{6-[2-(2,6-dichloro-4-methylphenoxy)ethoxy]pyridin-3-yl}-N-[3-(2-methoxyethoxy)-5-(3-methoxypropyl)benzyl]piperidine-3-carboxamide], the concentration for half-maximal inhibition (IC50) in test [1] is 6 nM; in test [2], 0.022 nM.

Consider `COCCCc1cc(CN(C(=O)[C@H]2CNCC[C@@H]2c2ccc(OCCOc3c(Cl)cc(C)cc3Cl)cc2)C2CC2)cc(OC[C@@H]2C[C@H]2CO)c1` [Example 8], for which the IC50 in test [1] amounted to 2.6 nM; in test [2], 0.036 nM.

The term IC50 denotes the concentration needed to halve the response being measured.
